± gives the expanded uncertainty stated by the source.
Settings: Crystal; DSC

`NC(=O)c1ccc(N)cc1` [4-aminobenzamide] showed a Triple point temperature of 453.4 ± 1.2 K.
